“And” between values parts separate entries of the source, which are not always exact repeats. Equal entries are not always repeated.
How the values were obtained:
T-47D cells = assay: WST-1 proliferation assay of T-47D cells; type: cell-based, human; conditions: for Single drug: absorbance at 450 nm as % of solvent control / Combi: absorbance at 450 nm as % of solvent control, agent in combination with 4-OHT / SE1 (synergistic effect, A anti-cancer compound alone / A combination): 4 days; for Single drug: absorbance at 450 nm as % of solvent control: OHT 10 or 20 μM, EN 10 μM, ETM 25 nM, FUL 1.0 μM, EXE 0.1 μM, Pab 50 nM, Doc 1.0 nM; for Combi: absorbance at 450 nm as % of solvent control, agent in combination with 4-OHT: agent at the single drug concentration plus 4-OHT; for growth inhibition by the combination with 4-OHT compared to the individual substances alone: FIG. 2, 7 days; for SE1 (synergistic effect, A anti-cancer compound alone / A combination): agent plus 4-OHT versus agent alone
Description: The human breast cancer cell line T-47 D (ACC 739) was obtained from DSMZ as frozen cell pellet (Deutsche Sammlung von Mikroorganismen und Zellkulturen). Originally, these cells T-47D cell line was isolated by Keydar et al. (1979) from a pleural effusion obtained from a patient with an infiltrating ductal carcinoma of the breast T-47D is expressing the ER, PR and AR but lacking HER2/neu overexpression. Thus, T-47D may represent a cell line representative for the most prevalent breast cancer subtype.
T-47D were grown routinely in RPMI medium containing 10% fetal calf serum (FCS) and antibiotics in a humidified incubator at 36.5° C./90% humidity and 5% CO2. Cells were maintained in cell culture bottles for less than 20 passages before the individual experiments were conducted; cell suspensions were cultured 96 well plates and exposed at various concentrations of the individual agents; incubation time varied as indicated in the respective figures. WST-1 assay was used to monitor proliferation at 450 nm wavelength.
Growth was as compared to control using WST-1 assay (monitoring absorption at 450 nm wavelength as indicator for cell viability compared to growth control).
(§1) T-47D cells were grown routinely in RPMI medium containing 10% fetal calf serum (FCS) and antibiotics in a humidified incubator at 36.5° C./90% humidity and 5% CO2. […] WST-1 assay was used to monitor proliferation at 450 nm wavelength.

ZR-75-1 = assay: WST-1 proliferation assay of ZR-75-1 cells; type: cell-based, human; conditions: 4 days; for Single drug: absorbance at 450 nm as % of solvent control: OHT 10 or 20 μM, EN 10 μM, ETM 25 nM, FUL 1.0 μM, EXE 0.1 μM, Pab 50 nM, Doc 1.0 nM; for Combi: absorbance at 450 nm as % of solvent control, agent in combination with 4-OHT: agent at the single drug concentration plus 4-OHT; for SE1 (synergistic effect, A anti-cancer compound alone / A combination): agent plus 4-OHT versus agent alone
MDAMB453 = assay: WST-1 proliferation assay of MDAMB453 cells; type: cell-based, human; conditions: 4 days; for Single drug: absorbance at 450 nm as % of solvent control: OHT 10 or 20 μM, EN 5 μM, ETM 25 nM, FUL 1.0 μM, EXE 0.1 μM, Pab 50 nM, Doc 1.0 nM; for Combi: absorbance at 450 nm as % of solvent control, agent in combination with 4-OHT: agent at the single drug concentration plus 4-OHT; for SE1 (synergistic effect, A anti-cancer compound alone / A combination): agent plus 4-OHT versus agent alone
VCaP cells = assay: WST-1 proliferation assay of VCaP cells; conditions: for Combi: absorbance at 450 nm as % of solvent control, agent in combination with 4-OHT: EN 10 μM or ABI 10 μM plus 4-OHT; for absorbance at 450 nm as % of solvent control, single compound: EN 10 μM, ABI 10 μM, 4-OHT concentration not stated
LNCaP cells = assay: WST-1 proliferation assay of LNCaP cells; conditions: for Combi: absorbance at 450 nm as % of solvent control, agent in combination with 4-OHT: EN 10 μM or ABI 10 μM plus 4-OHT; for absorbance at 450 nm as % of solvent control, single compound: EN 10 μM, ABI 10 μM, 4-OHT concentration not stated
ZR-75-1N cells = assay: WST-1 proliferation assay of ZR-75-1N cells; type: cell-based, human; conditions: FIG. 3B, 4-OHT 20 μM plus Docetaxel 1, 2, 4, 8 nM, 5 days, average of 3 experiments
Method: as §1
Further the human breast cancer cell line ZR-75-1N was cultured as described above and subjected to 4-OHT at a concentration of 20 μM and Docextaxel (Doc) at various concentrations (1, 2, 4, and 8 nM)) as single drugs or in combination for 5 days.

[1] = FIG. 4A, 4-OHT 10 μM, Bicalutamide 5 or 10 μM, Enzalutamide 5 or 10 μM, day 5

Row | SMILES | Single drug: absorbance at 450 nm as % of solvent control (T-47D cells) | Combi: absorbance at 450 nm as % of solvent control, agent in combination with 4-OHT (T-47D cells) | Single drug: absorbance at 450 nm as % of solvent control (ZR-75-1) | Combi: absorbance at 450 nm as % of solvent control, agent in combination with 4-OHT (ZR-75-1) | Single drug: absorbance at 450 nm as % of solvent control (MDAMB453) | Combi: absorbance at 450 nm as % of solvent control, agent in combination with 4-OHT (MDAMB453) | SE1 (synergistic effect, A anti-cancer compound alone / A combination) (T-47D cells) | SE1 (synergistic effect, A anti-cancer compound alone / A combination) (ZR-75-1) | SE1 (synergistic effect, A anti-cancer compound alone / A combination) (MDAMB453) | absorbance at 450 nm as % of solvent control, single compound (VCaP cells) | absorbance at 450 nm as % of solvent control, single compound (LNCaP cells) | further results
1 | C[C@]12CC[C@@H]3c4ccc(O)cc4C[C@@H](CCCCCCCCC[S+]([O-])CCCC(F)(F)C(F)(F)F)[C@H]3[C@@H]1CC[C@@H]2O (stereo partly shown) [Fulvestrant] | 38 % of solvent control | 22 % of solvent control | 90 % of solvent control | 43 % of solvent control | 80 % of solvent control | 27 % of solvent control |  |  |  |  |  | growth inhibition by the combination with 4-OHT compared to the individual substances alone (T-47D cells): significant growth inhibition
2 | CC/C(=C(\c1ccc(O)cc1)c1ccc(OCCNC)cc1)c1ccccc1 [Endoxifen] | 54 % of solvent control | 35 % of solvent control | 84 % of solvent control | 49 % of solvent control | 113 % of solvent control | 39 % of solvent control | 1.5 | 1.7 | 1.2 |  |  | 
3 | C[C@]12CC[C@H](O)CC1=CC[C@@H]1[C@@H]2CC[C@]2(C)C(c3cccnc3)=CC[C@@H]12 [Abiraterone] |  |  |  |  |  |  |  |  |  | 104 % of solvent control | 96 % of solvent control | Combi: absorbance at 450 nm as % of solvent control, agent in combination with 4-OHT (VCaP cells): 28.11 % of solvent control; Combi: absorbance at 450 nm as % of solvent control, agent in combination with 4-OHT (LNCaP cells): 90.57 % of solvent control
4 | CC(=O)c1c(C)c2cnc(Nc3ccc(N4CCNCC4)cn3)nc2n(C2CCCC2)c1=O [Palbociclib] | 80 % of solvent control | 33 % of solvent control | 91 % of solvent control | 71 % of solvent control | 112 % of solvent control | 120 % of solvent control | 2.4 | 1.3 | 0.9 |  |  | 
5 | C[C@]12CC[C@H]3[C@@H](CCC4=C(O)C(=O)CC[C@@]43C)[C@@H]1CC[C@@H]2O [4-OHT, 4-hydroxytestosterone] | 50 % of solvent control |  |  |  |  |  |  |  |  | 33 % of solvent control | 78 % of solvent control | Single drug: absorbance at 450 nm as % of solvent control (ZR-75-1; listed as OH20): 71 % of solvent control; Single drug: absorbance at 450 nm as % of solvent control (MDAMB453; listed as OHT): 55 % of solvent control and 40 % of solvent control; Single drug: absorbance at 450 nm as % of solvent control (MDAMB453; listed as OHT20): 76 % of solvent control; effect on cell growth as single compound (VCaP cells; FIG. 4B): very sensitive; effect on cell growth as single compound (LNCaP cells; [1]): only a slight effect; effect on cell growth as single compound (LNCaP cells; FIG. 5, 4-OHT 10 μM, Abiraterone 10 μM, day 5): only a slight effect
6 | CNC(=O)c1ccc(N2C(=S)N(c3ccc(C#N)c(C(F)(F)F)c3)C(=O)C2(C)C)cc1F [Enzalutamide] | 62 % of solvent control | 28 % of solvent control | 71 % of solvent control | 55 % of solvent control | 66 % of solvent control | 57 % of solvent control | 2.2 | 1.3 | 1.2 | 32 % of solvent control | 84 % of solvent control | Combi: absorbance at 450 nm as % of solvent control, agent in combination with 4-OHT (VCaP cells): 30 % of solvent control; effect on cell growth as single compound (VCaP cells; FIG. 4B): very sensitive; effect on cell growth of the combination with 4-OHT (VCaP cells; FIG. 4B): synergistic effect; Combi: absorbance at 450 nm as % of solvent control, agent in combination with 4-OHT (LNCaP cells): 58 % of solvent control; effect on cell growth of the combination with 4-OHT (LNCaP cells; FIG. 4A, 4-OHT 10 μM plus Bicalutamide 10 μM or Enzalutamide 10 μM, day 5): growth inhibition with a significant synergistic effect; effect on cell growth as single compound (LNCaP cells; [1]): not affected
7 | C=C1C[C@@H]2[C@H](CC[C@]3(C)C(=O)CC[C@@H]23)[C@@]2(C)C=CC(=O)C=C12 [Exemestane] | 70 % of solvent control | 47 % of solvent control | 81 % of solvent control | 57 % of solvent control | 118 % of solvent control | 33 % of solvent control |  |  |  |  |  | growth inhibition by the combination with 4-OHT compared to the individual substances alone (T-47D cells): significant growth inhibition
8 | CC(=O)O[C@@]12CO[C@@H]1C[C@H](O)[C@@]1(C)C(=O)[C@H](O)C3=C(C)[C@@H](OC(=O)[C@H](O)[C@@H](NC(=O)OC(C)(C)C)c4ccccc4)C[C@@](O)([C@@H](OC(=O)c4ccccc4)[C@H]21)C3(C)C [Docetaxel] | 31 % of solvent control | 20 % of solvent control | 72 % of solvent control | 43 % of solvent control | 103 % of solvent control | 89 % of solvent control |  |  |  |  |  | effect on proliferation of the combination with 4-OHT compared to the single drugs (T-47D cells; FIG. 3A, Docetaxel 1, 2, 4, 8 nM, 5 days): synergistic effect; effect on proliferation of the combination with 4-OHT (ZR-75-1N cells): clear effect of the combination is seen at the lowest dose
